Results reported in US20200276094A1, “COMPOSITIONS FOR SKIN EXPOLIATION AND USE THEREOF” (Allergan, Inc., priority 2011, published 2020).
“Also recorded” adds a separate entry of the source.

Columns and labels:
[1] = test system: subjects with mild to moderate photodamage; experiment: Study 3: Retinol 3% (oil-free) vs. RA 0.3%, split-face single-blind clinical study, series of three peel procedures
[2] = test system: subjects having Fitzpatrick Skin Types I-IV; settings: split-face: Retinoic Acid 0.3% right side vs Retinol 2% left side; 7-day; FIG. 1
[3] = FIG. 8, post-peel #3, blinded photograph evaluation by an expert physician

| Compound | investigator noticed no difference between the sides ([1]; FIG. 4, Retinol 3% (oil-free) vs Retinoic Acid 0.3%) | subjects felt no difference between the sides, post-peel #1 ([1]; FIG. 5, Retinol 3% (oil-free) vs Retinoic Acid 0.3%) | subjects preferred treated side, post-peel #1 subject assessment ([1]; FIG. 5) | subjects felt no difference between the sides, post-peel #2 ([1]; FIG. 6, Retinol 3% (oil-free) vs Retinoic Acid 0.3%) | subjects preferred treated side, post-peel #2 subject assessment ([1]; FIG. 6) | subjects felt no difference between the sides, post-peel #3 ([1]; FIG. 7, Retinol 3% (oil-free) vs Retinoic Acid 0.3%) | subjects preferred treated side, post-peel #3 subject assessment ([1]; FIG. 7) | improvement in fine lines and wrinkles compared to retinoic acid [1, 3] | improvement in photodamage compared to retinoic acid [1, 3] | improvement in unevenness of skin tone compared to retinoic acid [1, 3] | subjects demonstrating a difference favoring the treated side ([1]; end of treatment, one subject) | adverse reaction on treated side ([1]; one subject, treated with topical hydrocortisone for 3 days, resolved, no reaction on re-challenge) | stinging/burning and tightness (investigator and subject assessments) [2] |
| --- | --- | --- | --- | --- | --- | --- | --- | --- | --- | --- | --- | --- | --- |
| CC1=C(/C=C/C(C)=C/C=C/C(C)=C/CO)C(C)(C)CCC1 [retinol, (2E,4E,6E,8E)-3,7-dimethyl-9-(2,6,6-trimethylcyclohex-1-enyl)nona-2,4,6,8-tetraen-1-ol] | 95 % of subjects | 75 % of subjects | 15 % of subjects | 85 % of subjects | 5 % of subjects | 95 % of subjects | 5 % of subjects | about twice as much improvement; also recorded: superior efficacy | about twice as much improvement; also recorded: superior efficacy | about twice as much improvement; also recorded: superior efficacy | 5% | irritation (rash, redness) |  |
| CC1=C(/C=C/C(C)=C/C=C/C(C)=C/C(=O)O)C(C)(C)CCC1 [Retinoic Acid] |  |  | 10 % of subjects |  | 10 % of subjects |  | 0 % of subjects |  |  |  |  |  | more |
